Assay results taken from patent US8129377B2, “6-(pyridinyl)-4-pyrimidone derivates as tau protein kinase 1 inhibitors” (Mitsubishi Tanabe Pharma Corporation, priority 2004, dated 2012).

These compounds were tested against T1, bovine cerebral TPK1 (Bos taurus, UniProt A0A3Q1MT31) (assay: Inhibitory activity against P-GS1 phosphorylation by bovine cerebral TPK1). Settings: 41.7 μM [γ-32P] ATP, 25° C., 2 hours.
T1 construct: from tissue; host or cells: bovine brain (cerebrum)
T1 sequence (A0A3Q1MT31 1-419): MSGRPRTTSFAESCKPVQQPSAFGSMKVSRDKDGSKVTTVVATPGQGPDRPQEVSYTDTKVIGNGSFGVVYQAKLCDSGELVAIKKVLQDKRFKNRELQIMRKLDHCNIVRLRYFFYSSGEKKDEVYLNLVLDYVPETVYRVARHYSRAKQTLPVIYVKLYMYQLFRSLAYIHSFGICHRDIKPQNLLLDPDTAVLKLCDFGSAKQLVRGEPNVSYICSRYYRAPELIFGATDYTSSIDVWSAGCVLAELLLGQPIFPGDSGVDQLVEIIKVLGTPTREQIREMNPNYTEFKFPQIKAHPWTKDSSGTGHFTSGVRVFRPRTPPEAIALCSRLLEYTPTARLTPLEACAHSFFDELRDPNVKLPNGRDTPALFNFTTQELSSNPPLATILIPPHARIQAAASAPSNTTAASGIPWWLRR
Type: biochemical
Method: Experiment 1: Inhibitory Activity of the Medicament of the Present Invention Against P-GS1 Phosphorylation by Bovine Cerebral TPK1
A mixture containing 100 mM MES-sodium hydroxide (pH 6.5), 1 mM magnesium acetate, 0.5 mM EGTA, 5 mM β-mercaptoethanol, 0.02% Tween 20, 10% glycerol, 12 μg/ml P-GS1, 41.7 μM [γ^−32P] ATP (68 kBq/ml), bovine cerebral TPK1 and a compound shown in Table (a final mixture contained 1.7% DMSO deriving from a solution of a test compound prepared in the presence of 10% DMSO) was used as a reaction system. The phosphorylation was started by adding ATP, and the reaction was conducted at 25° C. for 2 hours, and then stopped by adding 21% perchloric acid on ice cooling. The reaction mixture was centrifuged at 12,000 rpm for 5 minutes and adsorbed on P81 paper (Whatmann), and then the paper was washed four times with 75 mM phosphoric acid, three times with water and once with acetone. The paper was dried, and the residual radioactivity was measured using a liquid scintillation counter.
An IC50 of 7.9 nM was found for `Cn1c(N2CCO[C@@H](c3cc4ccccc4o3)C2)nc(-c2ccncc2F)cc1=O` [compound 4] in this work.
An IC50 of 1.4 nM was found for `Cn1c(N2CCO[C@@H](c3c(F)cccc3Cl)C2)nc(-c2ccncc2F)cc1=O` [compound 5] in this work.
An IC50 of 3.7 nM was found for `Cn1c(N2CCN[C@@H](c3ccc(N4CCCCC4)cc3)C2)nc(-c2ccncc2F)cc1=O` [compound 14, 6-(3-Fluoro-pyridin-4-yl)-3-methyl-2-((3S)-3-(4-piperidin-1-yl-phenyl)-piperazin-1-yl)-3H-pyrimidin-4-one] in this work.
An IC50 of 1.7 nM was found for `Cn1c(N2CCO[C@@H](c3ccc(N4CCC(N5CCCC5)CC4)cc3)C2)nc(-c2ccncc2F)cc1=O` [compound 17] in this work.
An IC50 of 0.53 nM was found for `Cn1c(N2CCN[C@@H](c3ccc(N4CCN(c5ccccc5)CC4)cc3)C2)nc(-c2ccncc2F)cc1=O` [compound 22] in this work.
An IC50 of 0.73 nM was found for `COc1ccc(-c2ccc([C@H]3CN(c4nc(-c5ccncc5F)cc(=O)n4C)CCN3)cc2)cc1` [compound 41] in this work.
An IC50 of 6.4 nM was found for `Cn1c(N2CCC(c3ccc(N4CCCC4)cc3)CC2)nc(-c2ccncc2F)cc1=O` [compound 56] in this work.
An IC50 of 1.2 nM was found for `CC(C)Oc1ccc(-c2ccc([C@H]3CN(c4nc(-c5ccncc5F)cc(=O)n4C)CCN3)cc2)cc1` [compound 92] in this work.
An IC50 of 8.2 nM was found for `Cn1c(N2CCC(Nc3cccc(C(F)(F)F)c3)CC2)nc(-c2ccncc2F)cc1=O` [compound 105] in this work.
An IC50 of 2.9 nM was found for `Cn1c(N2CCO[C@@H](c3ccc(N)cc3)C2)nc(-c2ccncc2F)cc1=O` [compound 158, 2-((2S)-2-(4-Aminophenyl)morpholin-4-yl)-6-(3-fluoropyridin-4-yl)-3-methyl-3H-pyrimidin-4-one] in this work.
An IC50 of 13 nM was found for `CNc1cc(-c2cc(=O)n(C)c(N3CCO[C@@H](c4cc(C#N)ccc4OC)C3)n2)ccn1` [compound 196] in this work.
An IC50 of 2.2 nM was found for `Cn1c(N2CCO[C@@H](c3ccc(NC(=O)C4CCCCC4)cc3)C2)nc(-c2ccncc2F)cc1=O` [compound 209] in this work.
An IC50 of 0.51 nM was found for `Cc1cc(C2CN(c3nc(-c4ccncc4F)cc(=O)n3C)CCO2)ccc1Br` (stereo not drawn) [compound 210] in this work.
An IC50 of 5.4 nM was found for `CN(c1ccc([C@H]2CN(c3nc(-c4ccncc4F)cc(=O)n3C)CCO2)cc1)c1ccccn1` [compound 212] in this work.
An IC50 of 4.2 nM was found for `Cn1c(N2CCO[C@@H](c3ccc(NC(=O)C(C)(C)C)cc3)C2)nc(-c2ccncc2F)cc1=O` [compound 215] in this work.
An IC50 of 2.7 nM was found for `Cn1c(N2CCO[C@@H](c3ccc(N[C@@H]4CCOC4)cc3)C2)nc(-c2ccncc2F)cc1=O` [compound 220, 2-((2S)-2-(4-(N-((3R)-Tetrahydrofuran-3-yl)amino)phenyl)morpholin-4-yl)-3-methyl-6-(3-fluoropyridin-4-yl)-3H-pyrimidin-4-one] in this work.
An IC50 of 3.9 nM was found for `CN(c1ccc([C@H]2CN(c3nc(-c4ccncc4F)cc(=O)n3C)CCO2)cc1)[C@@H]1CCOC1` [compound 221, 6-(3-Fluoropyridin-4-yl)-2-((2S)-2-(4-(N-methyl-N-((3R)-tetrahydrofuran-3yl)amino)phenyl)morpholin-4-yl)-3-methyl-3H-pyrimidin-4-one] in this work.
An IC50 of 1.1 nM was found for `Cn1c(N2CCO[C@@H](c3ccc(OCCN4CCOCC4)cc3)C2)nc(-c2ccncc2F)cc1=O` [compound 224] in this work.
An IC50 of 6.4 nM was found for `CC(=O)N1CCC(Oc2ccc([C@H]3CN(c4nc(-c5ccncc5F)cc(=O)n4C)CCO3)cc2)CC1` [compound 238, 2-((2S)-2-(4-(1-Acetylpiperidin-4-yloxy)phenyl)morpholin-4-yl)-6-(3-fluoropyridin-4-yl)-3-methyl-pyrimidin-4-one] in this work.
An IC50 of 13 nM was found for `COc1cc(Cl)ccc1[C@H]1CN(c2nc(-c3ccncc3Cl)cc(=O)n2C)CCO1` [compound 247] in this work.
An IC50 of 0.27 nM was found for `CN(C)CC(=O)Nc1ccc([C@H]2CN(c3nc(-c4ccncc4F)cc(=O)n3C)CCO2)cc1` [compound 288, N^2,N^2-Dimethyl-N^1-(4-((2S)-4-(3-methyl-4-oxo-3,4-dihydro-6-(3-fluoropyridin-4-yl)pyrimidin-2-yl)morpholin-2-yl)phenyl)glycinamide] in this work.
An IC50 of 1.2 nM was found for `COC(=O)Nc1ccc([C@H]2CN(c3nc(-c4ccncc4F)cc(=O)n3C)CCO2)cc1` [compound 295, Methyl (4-((2S)-4-(6-(3-fluoropyridin-4-yl)-3-methyl-4-oxo-3H-pyrimidin-2-yl)morpholin-2-yl)phenyl)carbamate] in this work.
An IC50 of 11 nM was found for `CN(C)C(=O)Nc1ccc([C@H]2CN(c3nc(-c4ccncc4F)cc(=O)n3C)CCO2)cc1` [compound 298, N′-(4-((2S)-4-(6-(3-Fluoropyridin-4-yl)-3-methyl-4-oxo-3H-pyrimidin-2-yl)morpholin-2-yl)phenyl)-N,N-dimethylurea] in this work.
An IC50 of 6.2 nM was found for `Cn1c(N2CCC[C@H](c3ccc(Br)cc3)C2)nc(-c2ccncc2F)cc1=O` [compound 303, 2-((3R)-3-(4-Bromophenyl)piperidin-1-yl)-6-(3-fluoropyridin-4-yl)-3-methyl-3H-pyrimidine-4-one] in this work.
An IC50 of 1.2 nM was found for `Cn1c(N2CCOC(c3ccc4c(c3)CCC(=O)N4)C2)nc(-c2ccncc2F)cc1=O` (stereo not drawn) [compound 305] in this work.
An IC50 of 7.4 nM was found for `Cn1c(N2CCO[C@@H](c3ccc(C(=O)N4CCOCC4)cc3)C2)nc(-c2ccncc2F)cc1=O` [compound 310] in this work.
An IC50 of 0.48 nM was found for `COc1ccc(NC(C)=O)cc1[C@H]1CN(c2nc(-c3ccncc3F)cc(=O)n2C)CCO1` [compound 313] in this work.
An IC50 of 4.1 nM was found for `CC(=O)Nc1cccc([C@H]2CN(c3nc(-c4ccncc4F)cc(=O)n3C)CCO2)c1` [compound 314] in this work.
An IC50 of 4.8 nM was found for `Cn1c(N2CCN[C@@H](c3ccc(-c4ncon4)cc3)C2)nc(-c2ccncc2F)cc1=O` [compound 322, 6-(3-Fluoropyridin-4-yl)-3-methyl-2-((3S)-3-(4-([1,2,4]oxadiazol-3-yl)phenyl)piperazin-1-yl)-3H-pyrimidin-4-one] in this work.
An IC50 of 2.9 nM was found for `Cc1nc(-c2ccc([C@H]3CN(c4nc(-c5ccncc5F)cc(=O)n4C)CCN3)cc2)no1` [compound 334, 6-(3-Fluoropyridin-4-yl)-3-methyl-2-((3S)-3-(4-(5-methyl-[1,2,4]oxadiazol-3-yl)phenyl)piperazin-1-yl)-3H-pyrimidin-4-one] in this work.
